From patent US20230181614A1, “ADMINISTRATION OF CITICOLINE TO IMPROVE COGNITIVE PERFORMANCE, ATTENTIONAL PERFORMANCE, AND MOTOR FUNCTION” (KYOWA HAKKO BIO CO., LTD., priority 2014, published 2023)
Where “and” joins values, the source holds several entries; their conditions need not be identical. Equal entries are not always repeated.

Experiments:
Assay type in all cases: in vivo, human
[1] = test system: Healthy subjects, ages 13-18; experiment: ADHD Rating Scale (ARS); parameters: scale not given here
Excerpt: (§1) Study participants were screened by telephone prior to study enrollment. Healthy subjects, ages 13-18, with no significant medical conditions and no history of co-morbid psychiatric disorder, current Axis I or II diagnosis, or previous participation in a pharmacotherapeutic trial, were selected. Use of any psychotropic medication or any previous head injury resulting in loss of consciousness for 5 or more minutes were used as exclusion criteria. While no participant met criteria for a neuropsychiatric disorder at enrollment, clinical assessments were still completed throughout the study to evaluate changes in mood state. In addition, self-reports of sleep habits, lifestyle, and exercise routines were also administered at baseline as well as at each study visit to assess changes in health habits during study participation. Following the completion of Visit 1 assessment, participants were given their 28-day supply of citicoline (250 mg or 500 mg) or placebo, which was randomly assigned. They were instructed to take one capsule a day every day for the next 28 days. Visit 2 occurred fourteen days after Visit 1. At Visit 2, the remaining study pills were counted and participant dosage calendars were checked to ensure compliance with the protocol. Additional neuropsychological measures and clinical assessments were administered during this visit. Participants returned for Visit 3 fourteen days later, on the 28th day of their study participation. The pill bottle and the dosage calendar were collected from each participant. Urine and blood were again obtained. Participants also participated in similar clinical and neuropsychological testing and clinical measures that were given during visit 1. The ARS is a questionnaire assessing the frequency of DSM-IV-TR symptoms of ADHD in children including inattention, impulsivity, and hyperactivity. The scale was administered at each of the three visits to assess presence or absence of ADHD symptoms.

[2] = test system: Healthy subjects, ages 13-18; experiment: Conner-Wells Self-Report Scale (L) (Conners); details: for Conners Score, Mean: V3-V1
Excerpt: Study participants were screened by telephone prior to study enrollment. Healthy subjects, ages 13-18, with no significant medical conditions and no history of co-morbid psychiatric disorder, current Axis I or II diagnosis, or previous participation in a pharmacotherapeutic trial, were selected. Use of any psychotropic medication or any previous head injury resulting in loss of consciousness for 5 or more minutes were used as exclusion criteria. While no participant met criteria for a neuropsychiatric disorder at enrollment, clinical assessments were still completed throughout the study to evaluate changes in mood state. In addition, self-reports of sleep habits, lifestyle, and exercise routines were also administered at baseline as well as at each study visit to assess changes in health habits during study participation. Following the completion of Visit 1 assessment, participants were given their 28-day supply of citicoline (250 mg or 500 mg) or placebo, which was randomly assigned. They were instructed to take one capsule a day every day for the next 28 days. Visit 2 occurred fourteen days after Visit 1. At Visit 2, the remaining study pills were counted and participant dosage calendars were checked to ensure compliance with the protocol. Additional neuropsychological measures and clinical assessments were administered during this visit. Participants returned for Visit 3 fourteen days later, on the 28th day of their study participation. The pill bottle and the dosage calendar were collected from each participant. Urine and blood were again obtained. Participants also participated in similar clinical and neuropsychological testing and clinical measures that were given during visit 1. The Conners is a self-report questionnaire assessing a range or problem behaviors in children, including family problems, emotional problems, conduct problems, cognitive problems/inattention, anger control problems, hyperactivity, ADHD Index, and DSM-IV symptom subscales. The scale was administered at the first and third visits to assess presence or absence of a range of problem behaviors.

[3] = test system: Healthy subjects, ages 13-18; experiment: Monitoring of Side Effects Scale (MOSES); details: for V2 MOSES (Mean): Visit 2; for V3 MOSES (Mean): Visit 3; for MOSES V3-V2 Score (Mean): visit difference score V3-V2; for MOSES difference scores, between groups: visit 1 to visit 3 (so in the source); for MOSES, within-group change: visit 2 to 3
Excerpt: as §1, with “MOSES” for “ARS”, “scale designed to assess common symptoms or adverse events associated with psychopharmacological medications. This scale is divided into nine body areas representing a typical physical examination. The interviewer asks subjects whether they have each symptom on” for “questionnaire assessing”, “measure and, if so, asks them to report the level” for “frequency”, “severity” for “DSM-IV-TR symptoms of ADHD in children including inattention, impulsivity, and hyperactivity. The scale was administered at each”, “symptom on a scale from 0 (not present)” for “three visits”, “4 (severe). […]” for “assess presence or absence of ADHD symptoms.”

Question: With C[N+](C)(C)CCOP(=O)(O)OP(=O)([O-])OC[C@H]1O[C@@H](n2ccc(N)nc2=O)[C@H](O)[C@@H]1O [citicoline, Cytidine 5′-diphosphocholine] as the molecule, how does the “ARS Impulsivity, Mean” value ([1]; 250 mg/day, V1 (baseline)) read?
Answer: 1.44

Question: And the “ARS Inattention, Mean” value ([1]; 250 mg/day, V1 (baseline))?
Answer: 1.30

Question: And the “ARS Impulsivity, Mean” value ([1]; 250 mg/day, V3 (day 28))?
Answer: 0.85

Question: And the “ARS Inattention, Mean” value ([1]; 250 mg/day, V3 (day 28))?
Answer: 1.56

Question: And the “ARS Impulsivity, Mean” value ([1]; 250 mg/day, V3-V1)?
Answer: -0.59

Question: And the “ARS Inattention, Mean” value ([1]; 250 mg/day, V3-V1)?
Answer: 0.26

Question: And the “ARS Impulsivity, Mean” value ([1]; 500 mg/day, V1 (baseline))?
Answer: 0.88

Question: And the “ARS Inattention, Mean” value ([1]; 500 mg/day, V1 (baseline))?
Answer: 0.50

Question: And the “ARS Impulsivity, Mean” value ([1]; 500 mg/day, V3 (day 28))?
Answer: 0.38

Question: And the “ARS Inattention, Mean” value ([1]; 500 mg/day, V3 (day 28))?
Answer: 0.38

Question: And the “ARS Inattention, Mean” value ([1]; 500 mg/day, V3-V1)?
Answer: -0.13

Question: And the “Conners, Mean” value ([2]; 250 mg/day, V1 (baseline))?
Answer: 49.26

Question: What about the “Conners, Mean” value ([2]; 250 mg/day, V3 (day 28)) of the same molecule?
Answer: 49.52 and 46.52

Question: And the “Conners Score, Mean” value ([2]; 250 mg/day)?
Answer: -2.74

Question: What about the “Conners, Mean” value ([2]; 500 mg/day, V1 (baseline)) of the same molecule?
Answer: 43.83

Question: And the “Conners, Mean” value ([2]; 500 mg/day, V3 (day 28))?
Answer: 39.54

Question: And the “Conners Score, Mean” value ([2]; 500 mg/day)?
Answer: -4.29

Question: And the “V2 MOSES (Mean)” value ([3]; 250 mg/day group)?
Answer: 1.30

Question: And the “V3 MOSES (Mean)” value ([3]; 250 mg/day group)?
Answer: 1.04

Question: What about the “MOSES V3-V2 Score (Mean)” value ([3]; 250 mg/day group) of the same molecule?
Answer: -0.26

Question: What about the “MOSES difference scores, between groups” value ([3]; 250 mg/day vs 500 mg/day, p=0.64) of the same molecule?
Answer: no significant differences

Question: What about the “MOSES, between groups” value ([3]; 250 mg/day vs 500 mg/day, visit 3, p=0.11) of the same molecule?
Answer: no significant difference

Question: What about the “MOSES difference scores, between groups” value ([3]; 250 mg/day vs Placebo, p=0.70) of the same molecule?
Answer: no significant differences

Question: What about the “MOSES, between groups” value ([3]; 250 mg/day vs Placebo, visit 3, p=0.21) of the same molecule?
Answer: no significant difference

Question: And the “MOSES, within-group change” value ([3]; 250 mg/day, p=0.34)?
Answer: no significant differences

Question: What about the “V2 MOSES (Mean)” value ([3]; 500 mg/day group) of the same molecule?
Answer: 0.81

Question: What about the “V3 MOSES (Mean)” value ([3]; 500 mg/day group) of the same molecule?
Answer: 0.38

Question: And the “MOSES V3-V2 Score (Mean)” value ([3]; 500 mg/day group)?
Answer: -0.43

Question: What about the “MOSES, within-group change” value ([3]; 500 mg/day, p=0.07) of the same molecule?
Answer: trend toward significant differences

Question: And the “MOSES difference scores, between groups” value ([3]; Placebo vs 500 mg/day, p=0.30)?
Answer: no significant differences

Question: And the “MOSES, between groups” value ([3]; Placebo vs 500 mg/day, visit 3, p=0.85)?
Answer: No significant difference

Question: What about the “MOSES difference scores, three groups” value ([3]; p=0.66) of the same molecule?
Answer: no significant differences

Question: And the “MOSES, overall analysis” value ([3]; three groups, visit 3, p=0.23)?
Answer: no significant differences
